Assay results from the CheMixHub ionic liquid set.
± gives the uncertainty stated by the source.

Test: xn = mol fraction of the nth substance listed

For `C=C[n+]1ccn(CC(N)=O)c1.O=S(=O)([N-]S(=O)(=O)C(F)(F)F)C(F)(F)F` + CC#N, the electrical conductivity (298.15 K, 100 kPa, x1 = 0.01) was 1.29 ± 0.13 S/m, the viscosity (298.15 K, 100 kPa, x1 = 0.01) was 0.67 ± 0.14 mPa·s and the electrical conductivity (303.15 K, 100 kPa, x1 = 0.07) was 3.51 ± 0.28 S/m. It also gave an electrical conductivity (303.15 K, 100 kPa, x1 = 0.1) of 3.28 ± 0.26 S/m, a viscosity (303.15 K, 100 kPa, x1 = 0.1) of 10 ± 2 mPa·s and an electrical conductivity (303.15 K, 100 kPa, x1 = 0.2) of 1.77 ± 0.14 S/m. It also gave a viscosity (303.15 K, 100 kPa, x1 = 0.201) of 69 ± 14 mPa·s, an electrical conductivity (303.15 K, 100 kPa, x1 = 0.393) of 0.48 ± 0.04 S/m and a viscosity (303.15 K, 100 kPa, x1 = 0.4011) of 680 ± 150 mPa·s. The electrical conductivity (308.15 K, 100 kPa, x1 = 0.01) was 1.4 ± 0.14 S/m, the viscosity (308.15 K, 100 kPa, x1 = 0.01) was 0.61 ± 0.13 mPa·s and the electrical conductivity (308.15 K, 100 kPa, x1 = 0.02) was 2.78 ± 0.22 S/m. For the same compound, the viscosity (308.15 K, 100 kPa, x1 = 0.201) was 60 ± 12 mPa·s, the electrical conductivity (308.15 K, 100 kPa, x1 = 1) was 0.03 ± 0.01 S/m and the electrical conductivity (313.15 K, 100 kPa, x1 = 0.1) was 3.8 ± 0.3 S/m. It also gave a viscosity (313.15 K, 100 kPa, x1 = 0.1) of 8.2 ± 1.6 mPa·s, a viscosity (313.15 K, 100 kPa, x1 = 0.4011) of 424 ± 89 mPa·s and an electrical conductivity (318.15 K, 100 kPa, x1 = 0.01) of 1.53 ± 0.15 S/m. It also gave a viscosity (318.15 K, 100 kPa, x1 = 0.01) of 0.55 ± 0.11 mPa·s, an electrical conductivity (318.15 K, 100 kPa, x1 = 0.047) of 3.87 ± 0.31 S/m and an electrical conductivity (318.15 K, 100 kPa, x1 = 0.2) of 2.38 ± 0.19 S/m. For the same compound, the electrical conductivity (323.15 K, 100 kPa, x1 = 0.08) was 4.39 ± 0.35 S/m, the electrical conductivity (323.15 K, 100 kPa, x1 = 0.2) was 2.58 ± 0.21 S/m and the viscosity (323.15 K, 100 kPa, x1 = 0.3026) was 119 ± 24 mPa·s. The electrical conductivity (323.15 K, 100 kPa, x1 = 1) was 0.1 ± 0.01 S/m, the electrical conductivity (328.15 K, 100 kPa, x1 = 0.07) was 4.58 ± 0.37 S/m and the electrical conductivity (328.15 K, 100 kPa, x1 = 0.1) was 4.49 ± 0.36 S/m. It also gave a viscosity (328.15 K, 100 kPa, x1 = 0.1) of 6.6 ± 1.3 mPa·s, a viscosity (328.15 K, 100 kPa, x1 = 0.4011) of 233 ± 48 mPa·s and an electrical conductivity (328.15 K, 100 kPa, x1 = 1) of 0.14 ± 0.01 S/m. It also gave an electrical conductivity (333.15 K, 100 kPa, x1 = 0.047) of 4.34 ± 0.35 S/m and a viscosity (333.15 K, 100 kPa, x1 = 0.201) of 32.7 ± 6.6 mPa·s.

Work on `CCCCCC[n+]1ccccc1.O=[N+]([O-])[O-]` + CC#N yielded a viscosity (298.15 K, 101 kPa, x1 = 0.004149) of 0.5468 ± 0.0057 mPa·s, a viscosity (298.15 K, 101 kPa, x1 = 0.008252) of 0.6095 ± 0.006 mPa·s and a viscosity (298.15 K, 101 kPa, x1 = 0.0124) of 0.6478 ± 0.0063 mPa·s. It also gave a viscosity (298.15 K, 101 kPa, x1 = 0.01616) of 0.6731 ± 0.0064 mPa·s, a viscosity (298.15 K, 101 kPa, x1 = 0.02021) of 0.6913 ± 0.0066 mPa·s and a viscosity (298.15 K, 101 kPa, x1 = 0.02422) of 0.7042 ± 0.0067 mPa·s. The viscosity (298.15 K, 101 kPa, x1 = 0.02814) was 0.7132 ± 0.0068 mPa·s, the viscosity (298.15 K, 101 kPa, x1 = 0.032) was 0.7169 ± 0.0068 mPa·s and the viscosity (298.15 K, 101 kPa, x1 = 0.03564) was 0.7185 ± 0.0069 mPa·s. For the same compound, the viscosity (298.15 K, 101 kPa, x1 = 0.03937) was 0.7176 ± 0.0069 mPa·s.

In the case of `CCCC[P+](CCCC)(CCCC)CCCC.F[B-](F)(F)F` + CC#N, the viscosity (293.15 K, 100 kPa, x1 = 0.004186) is reported as 0.373 ± 0.023 mPa·s, the viscosity (293.15 K, 100 kPa, x1 = 0.0082) is reported as 0.395 ± 0.024 mPa·s and the viscosity (293.15 K, 100 kPa, x1 = 0.01203) is reported as 0.415 ± 0.025 mPa·s. It also gave a viscosity (293.15 K, 100 kPa, x1 = 0.01623) of 0.439 ± 0.027 mPa·s, a viscosity (293.15 K, 100 kPa, x1 = 0.01997) of 0.462 ± 0.028 mPa·s and a viscosity (293.15 K, 100 kPa, x1 = 0.02402) of 0.489 ± 0.03 mPa·s. For the same compound, the viscosity (293.15 K, 100 kPa, x1 = 0.02784) was 0.514 ± 0.031 mPa·s, the viscosity (293.15 K, 100 kPa, x1 = 0.03177) was 0.539 ± 0.033 mPa·s and the viscosity (293.15 K, 100 kPa, x1 = 0.03555) was 0.565 ± 0.034 mPa·s. It also gave a viscosity (293.15 K, 100 kPa, x1 = 0.03928) of 0.597 ± 0.036 mPa·s, a viscosity (298.15 K, 100 kPa, x1 = 0.0005293) of 0.347 ± 0.007 mPa·s and a viscosity (298.15 K, 100 kPa, x1 = 0.0007957) of 0.35 ± 0.007 mPa·s. The viscosity (298.15 K, 100 kPa, x1 = 0.001066) was 0.353 ± 0.007 mPa·s, the viscosity (298.15 K, 100 kPa, x1 = 0.001332) was 0.356 ± 0.007 mPa·s and the viscosity (298.15 K, 100 kPa, x1 = 0.001602) was 0.36 ± 0.007 mPa·s. The viscosity (298.15 K, 100 kPa, x1 = 0.001872) was 0.363 ± 0.007 mPa·s, the viscosity (298.15 K, 100 kPa, x1 = 0.004186) was 0.356 ± 0.022 mPa·s and the viscosity (298.15 K, 100 kPa, x1 = 0.0082) was 0.376 ± 0.023 mPa·s. The viscosity (298.15 K, 100 kPa, x1 = 0.01203) was 0.395 ± 0.024 mPa·s, the viscosity (298.15 K, 100 kPa, x1 = 0.01623) was 0.417 ± 0.025 mPa·s and the viscosity (298.15 K, 100 kPa, x1 = 0.01997) was 0.439 ± 0.027 mPa·s. For the same compound, the viscosity (298.15 K, 100 kPa, x1 = 0.02402) was 0.463 ± 0.028 mPa·s, the viscosity (298.15 K, 100 kPa, x1 = 0.02784) was 0.485 ± 0.029 mPa·s and the viscosity (298.15 K, 100 kPa, x1 = 0.03177) was 0.512 ± 0.031 mPa·s. The viscosity (298.15 K, 100 kPa, x1 = 0.03555) was 0.533 ± 0.032 mPa·s, the viscosity (298.15 K, 100 kPa, x1 = 0.03928) was 0.565 ± 0.034 mPa·s and the viscosity (303.15 K, 100 kPa, x1 = 0.004186) was 0.341 ± 0.021 mPa·s. For the same compound, the viscosity (303.15 K, 100 kPa, x1 = 0.0082) was 0.359 ± 0.022 mPa·s, the viscosity (303.15 K, 100 kPa, x1 = 0.01203) was 0.376 ± 0.023 mPa·s and the viscosity (303.15 K, 100 kPa, x1 = 0.01623) was 0.398 ± 0.024 mPa·s. It also gave a viscosity (303.15 K, 100 kPa, x1 = 0.01997) of 0.417 ± 0.025 mPa·s, a viscosity (303.15 K, 100 kPa, x1 = 0.02402) of 0.441 ± 0.027 mPa·s and a viscosity (303.15 K, 100 kPa, x1 = 0.02784) of 0.459 ± 0.028 mPa·s. It also gave a viscosity (303.15 K, 100 kPa, x1 = 0.03177) of 0.484 ± 0.029 mPa·s, a viscosity (303.15 K, 100 kPa, x1 = 0.03555) of 0.505 ± 0.031 mPa·s and a viscosity (303.15 K, 100 kPa, x1 = 0.03928) of 0.533 ± 0.032 mPa·s. For the same compound, the viscosity (308.15 K, 100 kPa, x1 = 0.004186) was 0.326 ± 0.02 mPa·s, the viscosity (308.15 K, 100 kPa, x1 = 0.0082) was 0.343 ± 0.021 mPa·s and the viscosity (308.15 K, 100 kPa, x1 = 0.01203) was 0.359 ± 0.022 mPa·s. It also gave a viscosity (308.15 K, 100 kPa, x1 = 0.01623) of 0.378 ± 0.023 mPa·s, a viscosity (308.15 K, 100 kPa, x1 = 0.01997) of 0.397 ± 0.024 mPa·s and a viscosity (308.15 K, 100 kPa, x1 = 0.02402) of 0.417 ± 0.025 mPa·s. It also gave a viscosity (308.15 K, 100 kPa, x1 = 0.02784) of 0.438 ± 0.027 mPa·s, a viscosity (308.15 K, 100 kPa, x1 = 0.03177) of 0.459 ± 0.028 mPa·s and a viscosity (308.15 K, 100 kPa, x1 = 0.03555) of 0.479 ± 0.029 mPa·s. The viscosity (308.15 K, 100 kPa, x1 = 0.03928) was 0.505 ± 0.031 mPa·s, the viscosity (313.15 K, 100 kPa, x1 = 0.004186) was 0.313 ± 0.019 mPa·s and the viscosity (313.15 K, 100 kPa, x1 = 0.0082) was 0.329 ± 0.02 mPa·s. It also gave a viscosity (313.15 K, 100 kPa, x1 = 0.01203) of 0.344 ± 0.021 mPa·s, a viscosity (313.15 K, 100 kPa, x1 = 0.01623) of 0.362 ± 0.022 mPa·s and a viscosity (313.15 K, 100 kPa, x1 = 0.01997) of 0.379 ± 0.023 mPa·s. It also gave a viscosity (313.15 K, 100 kPa, x1 = 0.02402) of 0.399 ± 0.024 mPa·s, a viscosity (313.15 K, 100 kPa, x1 = 0.02784) of 0.417 ± 0.025 mPa·s and a viscosity (313.15 K, 100 kPa, x1 = 0.03177) of 0.437 ± 0.026 mPa·s. For the same compound, the viscosity (313.15 K, 100 kPa, x1 = 0.03555) was 0.456 ± 0.028 mPa·s, the viscosity (313.15 K, 100 kPa, x1 = 0.03928) was 0.48 ± 0.029 mPa·s and the viscosity (318.15 K, 100 kPa, x1 = 0.004186) was 0.3 ± 0.018 mPa·s. For the same compound, the viscosity (318.15 K, 100 kPa, x1 = 0.0082) was 0.315 ± 0.019 mPa·s, the viscosity (318.15 K, 100 kPa, x1 = 0.01203) was 0.329 ± 0.02 mPa·s and the viscosity (318.15 K, 100 kPa, x1 = 0.01623) was 0.346 ± 0.021 mPa·s. For the same compound, the viscosity (318.15 K, 100 kPa, x1 = 0.01997) was 0.362 ± 0.022 mPa·s, the viscosity (318.15 K, 100 kPa, x1 = 0.02402) was 0.38 ± 0.023 mPa·s and the viscosity (318.15 K, 100 kPa, x1 = 0.02784) was 0.398 ± 0.024 mPa·s. It also gave a viscosity (318.15 K, 100 kPa, x1 = 0.03177) of 0.416 ± 0.025 mPa·s, a viscosity (318.15 K, 100 kPa, x1 = 0.03555) of 0.434 ± 0.026 mPa·s and a viscosity (318.15 K, 100 kPa, x1 = 0.03928) of 0.456 ± 0.028 mPa·s.
